Data taken from ChEMBL document CHEMBL4316630, “Benzimidazole-based DGAT1 inhibitors with a [3.1.0] bicyclohexane carboxylic acid moiety” (Bioorg Med Chem Lett, 2019).

What was measured:
[1] = biological target: T1, Diacylglycerol O-acyltransferase 1 (Homo sapiens, UniProt O75907); experiment: Inhibition of human DGAT1
T1 sequence (O75907 whole entry): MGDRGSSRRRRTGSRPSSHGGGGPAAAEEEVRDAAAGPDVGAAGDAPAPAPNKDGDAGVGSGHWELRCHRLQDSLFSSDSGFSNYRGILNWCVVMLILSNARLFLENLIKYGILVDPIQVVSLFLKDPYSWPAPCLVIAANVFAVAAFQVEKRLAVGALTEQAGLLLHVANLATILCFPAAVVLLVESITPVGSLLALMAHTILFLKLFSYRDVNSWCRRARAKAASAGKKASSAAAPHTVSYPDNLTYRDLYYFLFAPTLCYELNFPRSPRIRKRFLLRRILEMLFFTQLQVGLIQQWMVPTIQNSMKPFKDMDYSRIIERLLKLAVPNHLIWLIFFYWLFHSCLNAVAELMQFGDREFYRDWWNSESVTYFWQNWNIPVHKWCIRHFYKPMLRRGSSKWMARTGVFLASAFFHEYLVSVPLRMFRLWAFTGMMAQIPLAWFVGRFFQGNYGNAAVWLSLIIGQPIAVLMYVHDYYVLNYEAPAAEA

[2] = biological target: T2, Diacylglycerol O-acyltransferase 1 (Mus musculus, UniProt Q9Z2A7); experiment: Inhibition of mouse DGAT1
T2 sequence (Q9Z2A7 whole entry): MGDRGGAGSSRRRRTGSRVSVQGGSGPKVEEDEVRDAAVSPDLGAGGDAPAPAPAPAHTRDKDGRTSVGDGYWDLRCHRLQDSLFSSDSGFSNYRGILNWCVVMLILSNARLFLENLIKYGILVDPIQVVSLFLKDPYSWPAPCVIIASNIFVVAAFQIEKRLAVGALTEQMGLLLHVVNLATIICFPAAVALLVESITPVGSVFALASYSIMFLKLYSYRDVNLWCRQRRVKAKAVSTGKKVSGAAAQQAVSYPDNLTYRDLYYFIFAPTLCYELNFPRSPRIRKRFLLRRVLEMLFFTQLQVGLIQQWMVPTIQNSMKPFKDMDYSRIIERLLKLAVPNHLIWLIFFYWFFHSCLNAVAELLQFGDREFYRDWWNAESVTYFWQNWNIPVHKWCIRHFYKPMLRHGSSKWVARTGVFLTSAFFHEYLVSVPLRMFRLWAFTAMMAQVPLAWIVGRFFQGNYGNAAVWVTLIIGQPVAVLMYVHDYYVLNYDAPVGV

[3] = Lipophilicity, log D of the compound by HPLC analysis; format: physicochemical
[4] = biological target: T3, Sterol O-acyltransferase 1 (Homo sapiens, UniProt P35610); experiment: Inhibition of human ACAT1
T3 sequence (P35610 whole entry): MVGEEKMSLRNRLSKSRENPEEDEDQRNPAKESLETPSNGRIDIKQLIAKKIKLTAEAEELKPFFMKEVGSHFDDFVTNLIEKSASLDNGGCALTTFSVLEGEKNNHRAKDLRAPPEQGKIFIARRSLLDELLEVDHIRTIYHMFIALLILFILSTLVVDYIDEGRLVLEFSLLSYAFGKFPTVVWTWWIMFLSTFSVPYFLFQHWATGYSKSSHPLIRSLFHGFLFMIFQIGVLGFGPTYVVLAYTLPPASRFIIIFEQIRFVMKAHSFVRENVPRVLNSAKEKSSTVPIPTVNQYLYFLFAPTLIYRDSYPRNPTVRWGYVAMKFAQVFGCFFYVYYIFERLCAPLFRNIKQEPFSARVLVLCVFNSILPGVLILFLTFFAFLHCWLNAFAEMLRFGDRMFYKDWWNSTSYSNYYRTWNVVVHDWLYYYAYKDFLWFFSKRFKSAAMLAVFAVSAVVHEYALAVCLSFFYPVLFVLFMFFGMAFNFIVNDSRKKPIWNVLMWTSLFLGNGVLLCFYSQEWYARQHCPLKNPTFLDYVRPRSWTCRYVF

[5] = organism: Homo sapiens; experiment: Selectivity index, ratio of IC50 for human ACAT1 to IC50 for human DGAT1
[6] = tested on: Mus musculus; experiment: Reduction in lipid excursion in mouse assessed as change in triglyceride level at 3 mg/kg, po measured at 18 hrs post dose by lipid tolerance test; format: functional; design: scale not given: the % may be the effect or the level left
[7] = Plasma concentration in mouse at 3 mg/kg, po; format: ADME, organism-based; conditions: in vivo
[8] = Stability in rat hepatocytes assessed as epimerization incubated for 2 hrs by UPLC/HRMS analysis; format: ADME, cell-based, Hepatocyte
[9] = Stability in mouse hepatocytes assessed as epimerization incubated for 2 hrs by UPLC/HRMS analysis; format: ADME, cell-based, Hepatocyte
[10] = Stability in human hepatocytes assessed as epimerization incubated for 2 hrs by UPLC/HRMS analysis; format: ADME, cell-based, Hepatocyte
[11] = Drug metabolism in rat hepatocytes assessed as glucuronide formation incubated for 2 hrs by UPLC/HRMS analysis; format: ADME, cell-based, Hepatocyte
[12] = Drug metabolism in mouse hepatocytes assessed as glucuronide formation incubated for 2 hrs by UPLC/HRMS analysis; format: ADME, cell-based, Hepatocyte
[13] = Drug metabolism in human hepatocytes assessed as glucuronide formation incubated for 2 hrs by UPLC/HRMS analysis; format: ADME, cell-based, Hepatocyte
[14] = Plasma concentration in mouse at 10 mg/kg, po after 4 hrs; format: ADME, organism-based
[15] = tested on: Mus musculus; experiment: Reduction in lipid excursion in mouse assessed as change in triglyceride level at 10 mg/kg, po measured at 18 hrs post dose by lipid tolerance test; format: functional; design: scale not given: the % may be the effect or the level left
[16] = Plasma concentration in mouse at 10 mg/kg, po; format: ADME, organism-based; conditions: in vivo
[17] = Plasma concentration in mouse at 10 mg/kg, po after 3 hrs; format: ADME, organism-based
[18] = Drug metabolism in mouse assessed as epimerization by measuring plasma concentration of 1s,4s)-4-(1-(5-(5-(trifluoromethyl)-1H-benzo[d]imidazol-2-yl)pyridin-2-yl)piperidin-4-yloxy)cyclohexanecarboxylic acid at 10 mg/kg, po after 3 hrs; format: ADME, organism-based; conditions: in vivo

Row | IC50 [1] | IC50 [2] | logD [3] | IC50 [4] | Ratio IC50 [5] | concentration [7] | Stability [8] | Stability [9] | Stability [10] | Drug metabolism [11] | Drug metabolism [12] | Drug metabolism [13] | concentration at 4 h [14] | concentration [16] | concentration at 3 h [17] | concentration [18] | Compound | Activity [6] | Activity [15]
1 |  | 74 nM | 1.88 | > 10000 nM | > 900 | 23 nM | Stable | Stable | Stable | Metabolite_Detected | Metabolite_Detected | Metabolite_Detected |  |  |  |  | O=C(O)[C@@H]1[C@@H]2C[C@H](OC3CCN(c4ccc(-c5nc6cc(C(F)(F)F)ccc6[nH]5)cn4)CC3)C[C@@H]21 | 3% | 
2 |  |  | 1.68 |  | > 2500 |  | Unstable | Unstable | Unstable |  |  |  |  | 17 nM | 324 nM | 54 nM | O=C(O)[C@H]1CC[C@H](OC2CCN(c3ccc(-c4nc5cc(C(F)(F)F)ccc5[nH]4)cn3)CC2)CC1 |  | -89%
3 |  |  | 1.64 |  | > 4000 |  | Unstable | Unstable | Unstable |  |  |  |  | 26 nM |  |  | O=C(O)[C@H]1CC[C@@H](OC2CCN(c3ccc(-c4nc5cc(C(F)(F)F)ccc5[nH]4)cn3)CC2)CC1 |  | -75%

More lines, now with the values behind:

Row | Compound | IC50 [1] | IC50 [2] | logD [3] | IC50 [4] | Ratio IC50 [5] | concentration [7] | Stability [8] | Stability [9] | Stability [10] | Drug metabolism [11] | Drug metabolism [12] | Drug metabolism [13] | concentration at 4 h [14] | concentration [16] | concentration at 3 h [17] | concentration [18] | Activity [6] | Activity [15]
4 | O=C(O)[C@H]1[C@@H]2C[C@@H](OC3CCN(c4ccc(-c5nc6cc(C(F)(F)F)ccc6[nH]5)cn4)CC3)C[C@@H]21 | 3.8 nM | 22 nM | 1.87 | > 10000 nM | > 2600 | 25 nM |  |  |  |  |  |  |  |  |  |  | -30% | 
5 | O=C(O)[C@@H]1[C@@H]2C[C@@H](OC3CCN(c4ccc(-c5nc6cc(C(F)(F)F)ccc6[nH]5)cn4)CC3)C[C@@H]21 | 5.9 nM | 48 nM | 1.73 | > 10000 nM | > 1690 | 51 nM |  |  |  |  |  |  |  |  |  |  | -30% | 
6 | O=C(O)[C@H]1[C@@H]2C[C@H](OC3CCN(c4ccc(-c5nc6cc(C(F)(F)F)ccc6[nH]5)cn4)CC3)C[C@@H]21 |  | 4.3 nM | 1.9 | 3900 nM | 1950 | 27 nM | Stable | Stable | Stable | Metabolite_Detected | Metabolite_Detected | Metabolite_Detected | 151 nM |  |  |  | -70% | 
